Assay results as given in US20230180809A1, “NUTRACEUTIC COMPOSITION COMPRISING LIMONENE AND A DRY EXTRACT OF COCOA FIBRE FOR THE TREATMENT OF OBESITY” (TARGETING GUT DISEASE SRL, priority 2020, published 2023).

System: obese mice
Assay: slimming effect of limonene in obese mice
Assay type: in vivo
Conditions: obese mice after 12 weeks of high lipid diet, feed containing 0.5% of limonene ad libitum for 2 weeks
Procedure: Animal feed having a concentration of 0.5% in limonene corresponding to a daily dose of 0.6 g/kg of weight in humans. After 12 weeks of high lipid diet that caused obesity, mice were administered ad libitum, animal feed containing 0.5% of limonene for 2 weeks.

SMILES: C=C(C)[C@H]1CC=C(C)CC1 [limonene]
- accumulation of lipids in the cells: preventing the accumulation of lipids
- reduction of serum triglycerides: up to 47%
- size of both white and brown adipocytes: decreasing the size
